Our source for the EC50 values is PubChem BioAssay AID1625 (Sanford-Burnham Center for Chemical Genomics, 2009).

Usually EC50 stands for the concentration giving half of the maximal effect.

SMILES strings stand for the structures. Calls of active or inactive are those of the source.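 The calls were made as follows: active = z-score above 3 at 5 µM with at least 500 cells counted in the well; inconclusive = wells under 500 cells, flagged as cytotoxic or low count; inactive = the rest.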

This experiment has as its system MIN6 insulin promoter-GFP reporter, high-content imaging. The experiment is described as follows: insulin promoter activators in MIN6 cells, imaging, high-content screening, mouse beta cells (AID 1625).
On to `CN1CC=C2C(C#N)=C(N)C(C#N)(C#N)[C@H](c3cccs3)[C@H]2C1`, for which the EC50 is 11.1 µM (inactive).

For the compound `CCC(C)N1C(=O)/C(=C/c2c(NCCCOC(C)C)nc3c(C)cccn3c2=O)SC1=S` (stereo not given), the EC50 was 2.83 µM.

As for `Cc1ccc(-c2ccc(/C=C(\C#N)C(=O)Nc3cc(C)nn3-c3ccccc3)o2)cc1`, the EC50 is > 16 µM (inactive).

For the compound `Cc1nonc1NC(=O)CSc1nc2c(C)cccc2cc1C#N`, the EC50 was > 16 µM (inactive).

With `COc1cc2nc(/C=C/c3ccc(N(C)C)cc3)sc2cc1SC`, the half-maximal effective concentration (EC50) is 7.43 µM.

`CCN1C=CC2=C(C#N)C(N)C(C#N)(C#N)C(c3ccccc3C(F)(F)F)C2C1` (stereo not given): the concentration for a half-maximal effect (EC50) was 4.63 µM.

For `O=C(C1=C(O)C(=O)N(c2nccs2)C1c1ccccc1)c1cc2ccccc2o1` (stereo not given), the EC50 is 13.3 µM (inactive).

Consider `Cc1[nH]c2ccccc2c1/C=N/Nc1ccc([N+](=O)[O-])cc1`, for which the EC50 was 9.3 µM.

Turning to `CCOCCCNc1nc2c(C)cccn2c(=O)c1/C=C1\SC(=S)N(CC(C)C)C1=O`, the EC50 is > 16 µM (inactive).

As for `COc1cccc2sc(NNC(=O)C3=COCCO3)nc12`, the EC50 was > 16 µM (inactive).

Turning to `O=C1c2cccc3c(O)ccc(c23)C(=O)N1Cc1ccccc1`, the concentration for a half-maximal effect (EC50) was 5.65 µM.

Turning to `O=C1c2cccc3c(N4CCCCC4)ccc(c23)C(=O)N1c1ccccc1O`, the EC50 is > 16 µM (inactive).

`CCCN1C(=O)/C(=C/c2c(NCCCOC(C)C)nc3c(C)cccn3c2=O)SC1=S`: the EC50 is > 16 µM (inactive).

For the compound `Cc1ccc(N2C(=O)c3cccc4c(N5CCN(C)CC5)ccc(c34)C2=O)c2cccnc12`, the EC50 is 10.3 µM (inactive).

Regarding `CCCN1C(=O)c2cccc3c(N4CCCCC4)ccc(c23)C1=O`, the EC50 was > 16 µM (inactive).

Take `COc1cccc(/C=N/NC(=O)c2oc3nc(-c4ccccc4)cc(-c4ccco4)c3c2N)c1`: the EC50 was > 16 µM (inactive).

For the compound `Cc1ccc(-c2cn3nc(-c4ccccc4)c(-c4ccccc4)nc3n2)cc1`, the EC50 was 12.4 µM (inactive).

Turning to `CCCCN1C(=O)/C(=C/C=C2\Oc3ccccc3N2CC)SC1=S`, the EC50 was 0.958 µM.

As for `O=C1c2cccc3c(O)ccc(c23)C(=O)N1Cc1ccco1`, the EC50 was 13.7 µM (inactive).

For the compound `CC(C)NC(=O)/C(C#N)=C/c1ccc(N(C)C)o1`, the concentration for a half-maximal effect (EC50) is 8.07 µM.

In the case of `N#C/C(=C/c1ccc(N2CCCCC2)o1)C(=O)NCCc1c[nH]c2ccccc12`, the EC50 is 5.17 µM.

In the case of `CC(=O)n1c(C=Nc2ccccc2)c(O)c2ccccc21`, the EC50 is 10.1 µM (inactive).

With `Cc1noc(/C=C/c2ccc(-c3ccccc3Cl)o2)c1[N+](=O)[O-]`, the EC50 was 5.6 µM.

Consider `N#C/C(=C\c1ccc(N2CCCCC2)o1)C(N)=O`, for which the EC50 was 10.8 µM (inactive).

Turning to `Cc1cc(/C=C2\NC(=S)N(C)C2=O)ccc1N1CCCC1`, the concentration for a half-maximal effect (EC50) was 8.97 µM.

`Cc1ccc(/C=[N+](\[O-])c2ccc(N(C)C)cc2)c2nsnc12`: the EC50 was > 16 µM (inactive).

As for `CC(C)/C=C1\CC/C(=C\c2ccc(N(C)C)cc2)C1=O`, the EC50 is > 16 µM (inactive).

In the case of `COC(=O)c1cc(NC(=O)c2ccccc2)c(=O)oc1/C=C/Nc1ccc(Oc2ccccc2)cc1`, the EC50 is 6.49 µM.

On to `CCOC(=O)c1c(-c2ccc(C)cc2)csc1NC(=O)/C(C#N)=C/c1ccc(O)c(OC)c1`, for which the EC50 is > 16 µM (inactive).

Consider `COc1ccc(C(=O)c2sc3nc(-c4ccccc4)ccc3c2N)cc1OC`, for which the EC50 is > 16 µM (inactive).

In the case of `CCOC(=O)CN1C(=O)S/C(=C/c2ccc(N3CCCCC3)o2)C1=O`, the EC50 is 8.3 µM.

Regarding `N#C/C(=C/c1ccc(N2CCCCC2)o1)C(=O)Nc1ccc(Cl)cc1`, the EC50 is 0.482 µM.

Regarding `CCN(CC)c1ccc(/C=C(\C#N)C(=O)c2ccc(Br)cc2)cc1`, the EC50 was 12 µM (inactive).

Take `CC[n+]1c(/C=C/C=C/N(C(C)=O)c2ccccc2)sc2cc(OC)ccc21`: the concentration for a half-maximal effect (EC50) was 0.887 µM.

For the compound `COc1cc(OC)c(OC)cc1/C=C1\Oc2cc(OS(C)(=O)=O)ccc2C1=O`, the EC50 is > 16 µM (inactive).
